Where a name gives a salt, the structure may show the parent alone. Read-outs that look alike come from different tables or passages of the source.
Target: T1, human cannabinoid CB2 receptor (Homo sapiens, UniProt P34972)
T1 construct: expressed in transfected cells; host or cells: Saccharomyces cerevisiae strain MMY23 (cassette integrated at the ura3 locus, GPD promoter)
Assay: Cannabinoid CB2 receptor agonist activity in yeast cells (FDGlu fluorescence)
Format: cell-based
Conditions: for Emax: read-out: efficacy value (Emax) at the cloned human cannabinoid CB2 receptor
Procedure: The cannabinoid CB2 receptor agonist activity of the compounds of formula (I) was determined in accordance with the following experimental method.
Yeast (Saccharomyces cerevisiae) cells expressing the human cannabinoid CB2 receptor were generated by integration of an expression cassette into the ura3 chromosomal locus of yeast strain MMY23. This cassette consisted of DNA sequence encoding the human CB2 receptor flanked by the yeast GPD promoter to the 5′ end of CB2 and a yeast transcriptional terminator sequence to the 3′ end of CB2. MMY23 expresses a yeast/mammalian chimeric G-protein alpha subunit in which the C-terminal 5 amino acids of Gpal are replaced with the C-terminal 5 amino acids of human Gαi3 (as described in Brown et al. (2000), Yeast 16:11-22).
Agonists were prepared as 10 mM stocks in DMSO. […] Agonist solutions in DMSO (1% final assay volume) were transferred into black, clear bottom, microtitre plates from NUNC (96- or 384-well). Cells were suspended at a density of 0.2 OD600/ml in SC media lacking histidine, uracil, tryptophan, adenine and leucine and supplemented with 10 mM 3-aminotriazole, 0.1M sodium phosphate pH 7.0, and […] fluorescein di-β-D-glucopyranoside (FDGlu). […] After incubation at 30° C. for 24 hours, fluorescence resulting from degradation of FDGlu to fluorescein due to exoglucanase, an endogenous yeast enzyme produced during agonist-stimulated cell growth, was determined using a Spectrofluor microtitre plate reader (Tecan; excitation wavelength: 485 nm; emission wavelength: 535 nm). Fluorescence was plotted against compound concentration and iteratively curve fitted using a four parameter fit to generate a concentration effect value. Efficacy (Emax) was calculated from the equation
Equieffective molar ratio (EMR) values were calculated from the equation

[1] = Emax relative to HU210, yeast expressing human CB2
[2] = yeast (Saccharomyces cerevisiae) expressing human CB2, agonist, 30° C. for 24 hours, read-out: EC50 at the cloned human cannabinoid CB2 receptor

T1 sequence (P34972 whole entry): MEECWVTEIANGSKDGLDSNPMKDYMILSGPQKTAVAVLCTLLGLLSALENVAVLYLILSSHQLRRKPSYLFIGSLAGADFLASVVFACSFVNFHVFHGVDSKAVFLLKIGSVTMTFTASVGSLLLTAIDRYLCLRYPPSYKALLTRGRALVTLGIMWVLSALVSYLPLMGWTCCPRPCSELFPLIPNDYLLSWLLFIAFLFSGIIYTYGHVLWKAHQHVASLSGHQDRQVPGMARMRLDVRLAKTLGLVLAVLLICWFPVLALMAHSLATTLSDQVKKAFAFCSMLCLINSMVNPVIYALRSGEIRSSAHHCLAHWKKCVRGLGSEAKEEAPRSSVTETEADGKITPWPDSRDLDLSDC

| Emax [1] | EC50 [2] | SMILES | EC50 | Emax |
| --- | --- | --- | --- | --- |
|  |  | CC(C)c1cc(Nc2cccc(Cl)c2)ncc1CN1CCSCC1 [Example 60, (3-Chloro-phenyl)-(4-isopropyl-5-thiomorpholin-4-ylmethyl-pyridin-2-yl)-amine. dihydrochloride] | < 300 nM | > 50% |
|  |  | Clc1cccc(Nc2cc(C3CC3)c(CNCC3CCC3)cn2)c1 [Example 13, (3-Chloro-phenyl)-{5-[(cyclobutylmethyl-amino)-methyl]-4-cyclopropyl-pyridin-2-yl}-amine] | < 300 nM | > 50% |
| > 50% | < 300 nM | CC(C)c1cc(Nc2ccc(F)c(Cl)c2)ncc1CNCC1CCC1 [Example 18, (3-Chloro-4-fluoro-phenyl)-{5-[(cyclobutyhnethyl-amino)-methyl]-4-isopropyl-pyridin-2-yl}-amine,compound with formic acid (1:1.3)] |  |  |
|  |  | CC(C)CNCc1cnc(Nc2cccc(Cl)c2)cc1C1CC1 [Example 5, (3-Chlorophenyl)-[4-cyclopropyl-5-(isobutylamino-methyl)-pyridin-2-yl]-amineacetate] | < 300 nM | > 50% |
|  | 300 to 1000 nM | Fc1ccc(CNCc2cnc(Nc3ccc(Cl)cc3Cl)cc2C(F)(F)F)cc1 [Example 54, (2,4-Dichlorophenyl)-{5-[(4-fluoro-benzylamino)-methyl]-4-trifluoromethyl-pyridin-2-yl}-amine] |  |  |
|  |  | Clc1cccc(Nc2cc(C3CC3)c(CNCC3CC3)cn2)c1 [Example 3, (3-Chlorophenyl)-(4-cyclopropyl-5-[(cyclopropylmethyl-amino)-methyl]-pyridin-2-yl}-amine acetate] | < 300 nM | > 50% |
|  |  | CC(C)CNCc1cnc(Nc2ccc(Cl)cc2Cl)cc1C(C)C [Example 23, (2,4-Dichloro-phenyl)-[5-(isobutylamino-methyl)-4-isopropyl-pyridin-2-yl]-amine, compound withformic acid (1:1)] | < 300 nM | > 50% |
|  |  | CC(C)c1cc(Nc2cccc(C(F)(F)F)c2)ncc1CNCC1CC1 [Example 30, {5-[(Cyclopropylmethyl-amino)-methyl]-4-isopropyl-pyridin-2-yl}-(3-trifluoromethyl-phenyl)-amine,compound with formic acid (1:1)] | 300 to 1000 nM | > 50% |
|  |  | Cc1cc(Cl)ccc1Nc1cc(C(C)C)c(CNCC2CCC2)cn1 [Example 27, (4-Chloro-2-methyl-phenyl)-{5-[(cyclobutylmethyl-amino)-methyl)-4-isopropyl-pyridin-2-yl}-amine,compound with formic acid (1:1.33)] | 300 to 1000 nM | > 50% |
| > 50% | < 300 nM | CC(C)CNCc1cnc(Nc2cccc(C(F)(F)F)c2F)cc1C(C)C [Example 46, (2-Fluoro-3-trifluoromethyl-phenyl)-5-[(isobutylamino-methyl)-4-isopropyl-pyridin-2-yl]-amine,compound with formic acid (1:1.13)] |  |  |
|  |  | CC(C)c1cc(Nc2cccc(Cl)c2)ncc1CN1CCC(F)(F)CC1 [Example 57, (3-Chloro-phenyl)-[5-(4,4-difluoro-piperidin-1-ylmethyl)-4-isopropylpyridin-2-yl]-amine dihydrochloride] | < 300 nM | > 50% |
| > 50% | < 300 nM | CC(C)CNCc1cnc(Nc2cccc(Br)c2)cc1C(C)C [Example 48, (3-Bromo-phenyl)-[5-(isobutylamino-methyl)-4-isopropyl-pyridin-2-yl]-amine, compound withformic acid (1:33)] |  |  |
|  |  | CCCNCc1cnc(Nc2cccc(Cl)c2)cc1C1CC1 [Example 55, (3-Chloro-phenyl)-(4-cyclopropyl-5-propylaminomethyl-pyridin-2-yl) amine dihydrochloride] | < 300 nM | > 50% |

| SMILES | Emax [1] | EC50 [2] | EC50 | Emax |
| --- | --- | --- | --- | --- |
| Clc1cccc(Nc2cc(C3CC3)c(CNC3CCOCC3)cn2)c1 [Example 11, (3-Chlorophenyl)-{4-cyclopropyl-5-[(tetrahydro-pyran-4-ylamino)-methyl]-pyridin-2-yl}-amineacetate] |  | 300 to 1000 nM |  | > 50% |
| CC(C)c1cc(Nc2cc(F)cc(F)c2)ncc1CNCC1CC1 [Example 31, {5-[(Cyclopropylmethyl-amino)-methyl]-4-isopropyl-pyridin-2-yl}-(3,5-difluoro-phenyl)-amine,compound with formic acid (1:1)] |  | 300 to 1000 nM |  | > 50% |
